According to the NIST ThermoML archive (doi:10.1016/j.jct.2011.11.005):
Several values for one entry are separate records, joined by “and”; a condition that tells them apart may be missing. Equal values may be shown once. Numbers after ± are expanded uncertainties.

Columns and labels:
[1] = activity coefficient (dimensionless); of the first substance listed, at infinite dilution; xn = mol fraction of the nth substance listed; settings: 101.3 kPa, Liquid, x1 = 0
[2] = 101.33 kPa, Liquid, Vibrating tube method
[3] = 313 K, open tubular wall-coated column chromatography
[4] = 333 K, open tubular wall-coated column chromatography
[5] = 353 K, open tubular wall-coated column chromatography
[6] = 373 K, open tubular wall-coated column chromatography
[7] = 393 K, open tubular wall-coated column chromatography
[8] = 403 K, open tubular wall-coated column chromatography
[9] = 313 K, Open tubular Wall-Coated Column Chromatography
[10] = 333 K, Open tubular Wall-Coated Column Chromatography
[11] = 353 K, Open tubular Wall-Coated Column Chromatography
[12] = 373 K, Open tubular Wall-Coated Column Chromatography
[13] = 393 K, Open tubular Wall-Coated Column Chromatography
[14] = 383 K, open tubular wall-coated column chromatography
[15] = 413 K, Open tubular Wall-Coated Column Chromatography
[16] = 413 K, open tubular wall-coated column chromatography

## CCOC(C)=O [ethyl acetate] + CC(=O)[O-].CCn1cc[n+](C)c1
[1]; [3]
  activity coefficient: 4.41 ± 0.44
[1]; 333 K, Chromatography
  activity coefficient: 5.41 and 4.67
[1]; [4]
  activity coefficient: 4.77 ± 0.48
[1]; 353 K, Chromatography
  activity coefficient: 5.48 and 4.72
[1]; [5]
  activity coefficient: 5.24 ± 0.53
[1]; 373 K, Chromatography
  activity coefficient: 5.24 and 4.67
[1]; [6]
  activity coefficient: 5.62 ± 0.56
[1]; 393 K, Chromatography
  activity coefficient: 5.29 and 4.76
[1]; [7]
  activity coefficient: 5.35 ± 0.54
[1]; 403 K, Chromatography
  activity coefficient: 5.47 and 5.05
[1]; [8]
  activity coefficient: 5.32 ± 0.53
[1]; 413 K, Chromatography
  activity coefficient: 5.44 and 5.11

## COCCOC [1,2-dimethoxyethane] + CC(=O)[O-].CCn1cc[n+](C)c1
[1]; [9]
  activity coefficient: 3.56 ± 0.36
[1]; [10]
  activity coefficient: 3.88 ± 0.39
[1]; [11]
  activity coefficient: 4.11 ± 0.41
[1]; [12]
  activity coefficient: 4.51 ± 0.45
[1]; [13]
  activity coefficient: 4.81 ± 0.48

## C=CCCCC [hex-1-ene] + CC(=O)[O-].CCn1cc[n+](C)c1
[1]; 313 K, Chromatography
  activity coefficient: 37.8 and 39
[1]; [3]
  activity coefficient: 36 ± 3.6
[1]; 333 K, Chromatography
  activity coefficient: 34.7 and 35.5
[1]; [4]
  activity coefficient: 35.1 ± 3.5
[1]; 353 K, Chromatography
  activity coefficient: 31.3 and 34.8
[1]; 373 K, Chromatography
  activity coefficient: 31 and 33.4
[1]; 393 K, Chromatography
  activity coefficient: 30.6 and 30.1
[1]; 413 K, Chromatography
  activity coefficient: 25 and 27

## CC#N [acetonitrile] + CC(=O)[O-].CCn1cc[n+](C)c1
[1]; [4]
  activity coefficient: 0.76 ± 0.08
[1]; [5]
  activity coefficient: 0.77 ± 0.08
[1]; 373 K, Chromatography
  activity coefficient: 0.82 ± 0.05
[1]; [6]
  activity coefficient: 0.86 ± 0.09
[1]; 383 K, Chromatography
  activity coefficient: 0.85 and 0.88
[1]; [14]
  activity coefficient: 0.91 ± 0.09
[1]; 393 K, Chromatography
  activity coefficient: 0.87 ± 0.06
[1]; [7]
  activity coefficient: 0.89 ± 0.09
[1]; [8]
  activity coefficient: 1.21 ± 0.14

## C[N+](=O)[O-] [nitromethane] + CC(=O)[O-].CCn1cc[n+](C)c1
[1]; [11]
  activity coefficient: 0.44 ± 0.04
[1]; [12]
  activity coefficient: 0.46 ± 0.05
[1]; [13]
  activity coefficient: 0.46 ± 0.05

## CC(C)O [propan-2-ol] + CC(=O)[O-].CCn1cc[n+](C)c1
[1]; [9]
  activity coefficient: 0.08 ± 0.01
[1]; [10]
  activity coefficient: 0.11 ± 0.01
[1]; [11]
  activity coefficient: 0.13 ± 0.01
[1]; [12]
  activity coefficient: 0.15 ± 0.02
[1]; [13]
  activity coefficient: 0.16 ± 0.02
[1]; [15]
  activity coefficient: 0.19 ± 0.02

## CCCO [propan-1-ol] + CC(=O)[O-].CCn1cc[n+](C)c1
[1]; [9]
  activity coefficient: 0.06 ± 0.01
[1]; [10]
  activity coefficient: 0.07 ± 0.01
[1]; [11]
  activity coefficient: 0.09 ± 0.01
[1]; [12]
  activity coefficient: 0.1 ± 0.01
[1]; [13]
  activity coefficient: 0.11 ± 0.01
[1]; [15]
  activity coefficient: 0.13 ± 0.01

## CC(=O)[O-].CCn1cc[n+](C)c1 [1-ethyl-3-methylimidazolium acetate]
[2]; 293.15 K
  mass density: 1100.87 ± 0.31 kg/m3
[2]; 298.15 K
  mass density: 1097.83 ± 0.31 kg/m3
[2]; 303.15 K
  mass density: 1094.77 ± 0.31 kg/m3
[2]; 308.15 K
  mass density: 1091.71 ± 0.3 kg/m3
[2]; 313.15 K
  mass density: 1088.65 ± 0.3 kg/m3
[2]; 318.15 K
  mass density: 1085.61 ± 0.3 kg/m3
[2]; 323.15 K
  mass density: 1082.57 ± 0.3 kg/m3
[2]; 328.15 K
  mass density: 1079.55 ± 0.29 kg/m3
[2]; 333.15 K
  mass density: 1076.54 ± 0.29 kg/m3
[2]; 338.15 K
  mass density: 1073.54 ± 0.29 kg/m3
[2]; 343.15 K
  mass density: 1070.55 ± 0.29 kg/m3
[2]; 348.15 K
  mass density: 1067.58 ± 0.28 kg/m3
[2]; 353.15 K
  mass density: 1064.61 ± 0.28 kg/m3
[2]; 358.15 K
  mass density: 1061.65 ± 0.28 kg/m3

## CCCCCCC [heptane] + CC(=O)[O-].CCn1cc[n+](C)c1
[1]; [9]
  activity coefficient: 121 ± 12
[1]; [10]
  activity coefficient: 146 ± 15
[1]; [11]
  activity coefficient: 157 ± 16
[1]; [12]
  activity coefficient: 173 ± 17

## Cc1ccccc1 [toluene] + CC(=O)[O-].CCn1cc[n+](C)c1
[1]; [3]
  activity coefficient: 5.01 ± 0.5
[1]; [4]
  activity coefficient: 5.41 ± 0.54
[1]; [5]
  activity coefficient: 5.76 ± 0.58
[1]; 363 K, Chromatography
  activity coefficient: 6.07 and 6.21
[1]; 363 K, open tubular wall-coated column chromatography
  activity coefficient: 5.81 ± 0.58
[1]; 373 K, Chromatography
  activity coefficient: 6.08 and 5.92
[1]; [6]
  activity coefficient: 5.88 ± 0.59
[1]; 383 K, Chromatography
  activity coefficient: 6.12 and 6.03
[1]; [14]
  activity coefficient: 6.03 ± 0.6
[1]; 393 K, Chromatography
  activity coefficient: 6.23 and 5.87
[1]; [7]
  activity coefficient: 6.13 ± 0.61
[1]; 403 K, Chromatography
  activity coefficient: 6.28 and 6.04
[1]; [8]
  activity coefficient: 6.47 ± 0.65
[1]; 413 K, Chromatography
  activity coefficient: 7.11 and 6.37
[1]; [16]
  activity coefficient: 6.55 ± 0.66

## CCCCCC [hexane] + CC(=O)[O-].CCn1cc[n+](C)c1
[1]; 313 K, Chromatography
  activity coefficient: 86.4 and 90.5
[1]; [3]
  activity coefficient: 86.5 ± 8.7
[1]; 333 K, Chromatography
  activity coefficient: 82.4 and 80.7
[1]; [4]
  activity coefficient: 80 ± 8
[1]; 353 K, Chromatography
  activity coefficient: 65.9 and 71.3
[1]; [5]
  activity coefficient: 70.6 ± 7.1
[1]; 373 K, Chromatography
  activity coefficient: 66.1 and 72.7
[1]; 393 K, Chromatography
  activity coefficient: 58.8 and 55.3
[1]; 413 K, Chromatography
  activity coefficient: 91.2 and 66.5

## CC(C)(C)O [2-methylpropan-2-ol] + CC(=O)[O-].CCn1cc[n+](C)c1
[1]; [9]
  activity coefficient: 0.16 ± 0.02
[1]; [10]
  activity coefficient: 0.18 ± 0.02
[1]; [11]
  activity coefficient: 0.22 ± 0.02
[1]; [12]
  activity coefficient: 0.27 ± 0.03
[1]; [13]
  activity coefficient: 0.3 ± 0.03
[1]; [15]
  activity coefficient: 0.37 ± 0.04

## C1COCCO1 [1,4-dioxane] + CC(=O)[O-].CCn1cc[n+](C)c1
[1]; [4]
  activity coefficient: 2.29 ± 0.23
[1]; [5]
  activity coefficient: 2.28 ± 0.23
[1]; 373 K, Chromatography
  activity coefficient: 2.56 and 2.43
[1]; [6]
  activity coefficient: 2.39 ± 0.24
[1]; 393 K, Chromatography
  activity coefficient: 2.63 and 2.32
[1]; [7]
  activity coefficient: 2.52 ± 0.25
[1]; 403 K, Chromatography
  activity coefficient: 2.75 and 2.44
[1]; [8]
  activity coefficient: 2.67 ± 0.27
[1]; 413 K, Chromatography
  activity coefficient: 2.77 and 2.46
[1]; [16]
  activity coefficient: 2.58 ± 0.26

## C1CCOC1 [tetrahydrofuran] + CC(=O)[O-].CCn1cc[n+](C)c1
[1]; [3]
  activity coefficient: 3.22 ± 0.32
[1]; 333 K, Chromatography
  activity coefficient: 3.91 and 3.36
[1]; [4]
  activity coefficient: 3.49 ± 0.35
[1]; 353 K, Chromatography
  activity coefficient: 3.92 and 3.37
[1]; [5]
  activity coefficient: 3.63 ± 0.36
[1]; 373 K, Chromatography
  activity coefficient: 3.68 and 3.5
[1]; [6]
  activity coefficient: 3.67 ± 0.37
[1]; [14]
  activity coefficient: 3.94 ± 0.4
[1]; 393 K, Chromatography
  activity coefficient: 3.88 and 3.35
[1]; [7]
  activity coefficient: 4.02 ± 0.4
[1]; 403 K, Chromatography
  activity coefficient: 4.02 and 3.55
[1]; [8]
  activity coefficient: 4 ± 0.4
[1]; 413 K, Chromatography
  activity coefficient: 4.13 and 3.9

## CCC(C)(C)O [2-methylbutan-2-ol] + CC(=O)[O-].CCn1cc[n+](C)c1
[1]; [11]
  activity coefficient: 0.29 ± 0.03
[1]; [12]
  activity coefficient: 0.35 ± 0.04
[1]; [13]
  activity coefficient: 0.42 ± 0.04
[1]; [15]
  activity coefficient: 0.49 ± 0.05

## c1ccccc1 [benzene] + CC(=O)[O-].CCn1cc[n+](C)c1
[1]; [3]
  activity coefficient: 2.8 ± 0.28
[1]; [4]
  activity coefficient: 3.06 ± 0.31
[1]; 353 K, Chromatography
  activity coefficient: 3.41 and 3.39
[1]; [5]
  activity coefficient: 3.43 ± 0.34
[1]; 373 K, Chromatography
  activity coefficient: 3.45 and 3.31
[1]; [6]
  activity coefficient: 3.44 ± 0.34
[1]; 383 K, Chromatography
  activity coefficient: 3.49 and 3.62
[1]; [14]
  activity coefficient: 3.49 ± 0.35
[1]; 393 K, Chromatography
  activity coefficient: 3.52 and 3.45
[1]; [7]
  activity coefficient: 3.68 ± 0.37
[1]; 403 K, Chromatography
  activity coefficient: 4.15 and 3.67
[1]; [8]
  activity coefficient: 3.91 ± 0.4
[1]; 413 K, Chromatography
  activity coefficient: 4.1 and 4.11
[1]; [16]
  activity coefficient: 4.28 ± 0.43

## C1CCCCC1 [cyclohexane] + CC(=O)[O-].CCn1cc[n+](C)c1
[1]; 313 K, Chromatography
  activity coefficient: 36.2 and 35.5
[1]; [3]
  activity coefficient: 31.8 ± 3.2
[1]; 333 K, Chromatography
  activity coefficient: 30.9 and 31.6
[1]; [4]
  activity coefficient: 31.5 ± 3.2
[1]; 353 K, Chromatography
  activity coefficient: 27.3 and 29.1
[1]; [5]
  activity coefficient: 32.8 ± 3.3
[1]; 373 K, Chromatography
  activity coefficient: 27.4 and 29.3
[1]; 383 K, Chromatography
  activity coefficient: 26.9 and 25.6
[1]; 393 K, Chromatography
  activity coefficient: 26.5 and 28.9
[1]; [7]
  activity coefficient: 30.3 ± 3
[1]; 413 K, Chromatography
  activity coefficient: 24.8 and 24.3
